Test results published in ChEMBL document CHEMBL3112450, “Synthesis and in vitro antitumor evaluation of primary amine substituted quinazoline linked benzimidazole” (Bioorg Med Chem Lett, 2014).

Columns and labels:
Format in all cases: functional
[1] = test system: COLO 205; experiment: Cytotoxicity against human COLO205 cells assessed as cell growth at 10^-6 M after 48 hrs by SRB assay; details: COLO 205, 48 h, read-out: Activity
[2] = test system: SN12C; experiment: Cytotoxicity against human SN12C cells assessed as cell growth at 10^-4 M after 48 hrs by SRB assay; details: read-out: Activity
[3] = test system: COLO 205; experiment: Cytotoxicity against human COLO205 cells assessed as cell growth at 10^-8 M after 48 hrs by SRB assay; details: COLO 205, 48 h, read-out: Activity
[4] = test system: HT-29; experiment: Cytotoxicity against human HT-29 cells after 48 hrs by SRB assay; details: HT-29, 48 h
[5] = test system: HOP-92; experiment: Cytotoxicity against human HOP92 cells after 48 hrs by SRB assay; details: HOP-92, 48 h
[6] = Cytotoxicity against human UO31 cells assessed as cell growth at 10^-4 M after 48 hrs by SRB assay; details: UO-31, 48 h, read-out: Activity
[7] = test system: DU-145; experiment: Cytotoxicity against human DU145 cells assessed as cell growth at 10^-6 M after 48 hrs by SRB assay; details: DU-145, 48 h, read-out: Activity
[8] = test system: SF-539; experiment: Cytotoxicity against human SF539 cells assessed as cell growth at 10^-8 M after 48 hrs by SRB assay; details: SF-539, 48 h, read-out: Activity
[9] = test system: OVCAR-3; experiment: Cytotoxicity against human OVCAR3 cells assessed as cell growth at 10^-6 M after 48 hrs by SRB assay; details: OVCAR-3, 48 h, read-out: Activity
[10] = test system: MCF7; experiment: Cytotoxicity against human MCF7 cells assessed as cell growth at 10^-7 M after 48 hrs by SRB assay; details: MCF7, 48 h, read-out: Activity
[11] = test system: SN12C; experiment: Cytotoxicity against human SN12C cells assessed as cell growth at 10^-8 M after 48 hrs by SRB assay; details: read-out: Activity
[12] = test system: HL-60(TB); experiment: Cytotoxicity against human HL-60(TB) cells assessed as cell growth at 10^-6 M after 48 hrs by SRB assay; details: HL-60, 48 h, read-out: Activity
[13] = test system: UACC-62; experiment: Cytotoxicity against human UACC62 cells assessed as cell growth at 10^-6 M after 48 hrs by SRB assay; details: UACC-62, 48 h, read-out: Activity
[14] = test system: HOP-92; experiment: Cytotoxicity against human HOP92 cells assessed as cell growth at 10^-7 M after 48 hrs by SRB assay; details: HOP-92, 48 h, read-out: Activity
[15] = test system: SF-539; experiment: Cytotoxicity against human SF539 cells assessed as cell growth at 10^-7 M after 48 hrs by SRB assay; details: SF-539, 48 h, read-out: Activity
[16] = Cytotoxicity against human NCI-ADR-RES cells assessed as cell growth at 10^-8 M after 48 hrs by SRB assay; details: read-out: Activity
[17] = test system: HT-29; experiment: Cytotoxicity against human HT-29 cells assessed as cell growth at 10^-6 M after 48 hrs by SRB assay; details: HT-29, 48 h, read-out: Activity
[18] = test system: CAKI-1; experiment: Cytotoxicity against human Caki1 cells assessed as cell growth at 10^-7 M after 48 hrs by SRB assay; details: CAKI-1, 48 h, read-out: Activity
[19] = test system: NCI-H226; experiment: Cytotoxicity against human NCI-H226 cells assessed as cell growth at 10^-8 M after 48 hrs by SRB assay; details: NCI-H226, 48 h, read-out: Activity
[20] = test system: PC-3; experiment: Cytotoxicity against human PC3 cells assessed as cell growth at 10^-4 M after 48 hrs by SRB assay; details: PC-3, 48 h, read-out: Activity
[21] = test system: TK-10; experiment: Cytotoxicity against human TK10 cells assessed as cell growth at 10^-4 M after 48 hrs by SRB assay; details: TK-10, 48 h, read-out: Activity
[22] = test system: CAKI-1; experiment: Cytotoxicity against human Caki1 cells assessed as cell growth at 10^-6 M after 48 hrs by SRB assay; details: CAKI-1, 48 h, read-out: Activity
[23] = test system: IGROV-1; experiment: Cytotoxicity against human IGROV1 cells after 48 hrs by SRB assay; details: IGROV-1, 48 h
[24] = test system: TK-10; experiment: Cytotoxicity against human TK10 cells assessed as cell growth at 10^-6 M after 48 hrs by SRB assay; details: TK-10, 48 h, read-out: Activity
[25] = test system: RXF 393; experiment: Cytotoxicity against human RXF393 cells assessed as cell growth at 10^-7 M after 48 hrs by SRB assay; details: RXF 393, 48 h, read-out: Activity
[26] = test system: M14; experiment: Cytotoxicity against human M14 cells after 48 hrs by SRB assay; details: M14, 48 h
[27] = test system: NCI-H226; experiment: Cytotoxicity against human NCI-H226 cells after 48 hrs by SRB assay; details: NCI-H226, 48 h
[28] = test system: LOX IMVI; experiment: Cytotoxicity against human LOXIMVI cells assessed as cell growth at 10^-7 M after 48 hrs by SRB assay; details: read-out: Activity
[29] = test system: BT-549; experiment: Cytotoxicity against human BT549 cells assessed as cell growth at 10^-8 M after 48 hrs by SRB assay; details: BT-549, 48 h, read-out: Activity
[30] = test system: DU-145; experiment: Cytotoxicity against human DU145 cells after 48 hrs by SRB assay; details: DU-145, 48 h
[31] = test system: SF-268; experiment: Cytotoxicity against human SF268 cells assessed as cell growth at 10^-7 M after 48 hrs by SRB assay; details: SF-268, 48 h, read-out: Activity
[32] = test system: HCT-116; experiment: Cytotoxicity against human HCT116 cells assessed as cell growth at 10^-6 M after 48 hrs by SRB assay; details: HCT-116, 48 h, read-out: Activity
[33] = test system: SN12C; experiment: Cytotoxicity against human SN12C cells after 48 hrs by SRB assay
[34] = test system: SK-MEL-5; experiment: Cytotoxicity against human SK-MEL-5 cells assessed as cell growth at 10^-7 M after 48 hrs by SRB assay; details: SK-MEL-5, 48 h, read-out: Activity
[35] = test system: COLO 205; experiment: Cytotoxicity against human COLO205 cells assessed as cell growth at 10^-4 M after 48 hrs by SRB assay; details: COLO 205, 48 h, read-out: Activity
[36] = test system: Malme-3M; experiment: Cytotoxicity against human MALME-3M cells assessed as cell growth at 10^-8 M after 48 hrs by SRB assay; details: read-out: Activity
[37] = test system: K562; experiment: Cytotoxicity against human K562 cells assessed as cell growth at 10^-7 M after 48 hrs by SRB assay; details: K562, 48 h, read-out: Activity
[38] = test system: MCF7; experiment: Cytotoxicity against human MCF7 cells after 48 hrs by SRB assay; details: MCF7, 48 h
[39] = test system: NCI-H23; experiment: Cytotoxicity against human NCI-H23 cells assessed as cell growth at 10^-4 M after 48 hrs by SRB assay; details: NCI-H23, 48 h, read-out: Activity

C=CCn1c(C)nc2ccc(Nc3nc(Nc4ccc5nc(C)n(CC=C)c5c4)c4ccccc4n3)cc21
growth at 1 µM [1]: 78% | growth at 100 µM [2]: -50% | growth at 0.01 µM [3]: 105% | GI50 [4]: 1850 nM | TGI [4]: 3390 nM | GI50 [5]: 1370 nM | TGI [5]: 2930 nM | growth at 100 µM [6]: -46% | growth at 1 µM [7]: 104% | growth at 0.01 µM [8]: 96% | growth at 1 µM [9]: 94% | growth at 0.1 µM [10]: 91% | growth at 0.01 µM [11]: 96% | growth at 1 µM [12]: 95% | growth at 1 µM [13]: 86% | growth at 0.1 µM [14]: 86% | growth at 0.1 µM [15]: 94% | growth at 0.01 µM [16]: 99% | growth at 1 µM [17]: 101% | growth at 0.1 µM [18]: 90% | growth at 0.01 µM [19]: 90% | growth at 100 µM [20]: -46% | growth at 100 µM [21]: -49% | growth at 1 µM [22]: 90% | GI50 [23]: 1830 nM | TGI [23]: 3400 nM | growth at 1 µM [24]: 116% | growth at 0.1 µM [25]: 96% | GI50 [26]: 1620 nM | TGI [26]: 3040 nM | GI50 [27]: 1750 nM | TGI [27]: 3310 nM | growth at 0.1 µM [28]: 91% | growth at 0.01 µM [29]: 99% | GI50 [30]: 1850 nM | LC50 (50% lethal concentration) [30]: 5790 nM | TGI [30]: 3270 nM | growth at 0.1 µM [31]: 86% | growth at 1 µM [32]: 74% | GI50 [33]: 1620 nM | LC50 [33]: 5450 nM | TGI [33]: 2980 nM | growth at 0.1 µM [34]: 94% | growth at 100 µM [35]: -18% | growth at 0.01 µM [36]: 91% | growth at 0.1 µM [37]: 94% | GI50 [38]: 1540 nM | TGI [38]: 2880 nM | growth at 100 µM [39]: -42%

C=CCn1c(C)nc2cc(Nc3nc(Nc4ccc5nc(C)n(CC=C)c5c4)c4ccccc4n3)ccc21
growth at 1 µM [1]: -75% | growth at 100 µM [2]: -22% | growth at 0.01 µM [3]: 101% | GI50 [4]: 190 nM | LC50 (concentration killing 50% of cells) [4]: 100000 nM | TGI [4]: 349 nM | GI50 [5]: 780 nM | LC50 [5]: 4690 nM | TGI [5]: 2080 nM | growth at 100 µM [6]: -56% | growth at 1 µM [7]: 18% | growth at 0.01 µM [8]: 96% | growth at 1 µM [9]: -78% | growth at 0.1 µM [10]: 103% | growth at 0.01 µM [11]: 94% | growth at 1 µM [12]: 90% | growth at 1 µM [13]: 66% | growth at 0.1 µM [14]: 91% | growth at 0.1 µM [15]: 101% | growth at 0.01 µM [16]: 103% | growth at 1 µM [17]: -87% | growth at 0.1 µM [18]: 97% | growth at 0.01 µM [19]: 93% | growth at 100 µM [20]: -41% | growth at 100 µM [21]: -63% | growth at 1 µM [22]: 88% | GI50 [23]: 1540 nM | TGI [23]: 3010 nM | growth at 1 µM [24]: 30% | growth at 0.1 µM [25]: 88% | GI50 [26]: 1430 nM | TGI [26]: 3240 nM | GI50 [27]: 2030 nM | LC50 [27]: > 100000 nM | TGI [27]: 5040 nM | growth at 0.1 µM [28]: 96% | growth at 0.01 µM [29]: 100% | GI50 [30]: 402 nM | LC50 (50% lethal concentration) [30]: 3760 nM | TGI [30]: 1410 nM | growth at 0.1 µM [31]: 91% | growth at 1 µM [32]: -54% | GI50 [33]: 1280 nM | TGI [33]: 2900 nM | growth at 0.1 µM [34]: 94% | growth at 100 µM [35]: -6% | growth at 0.01 µM [36]: 95% | growth at 0.1 µM [37]: 99% | GI50 [38]: 209 nM | growth at 100 µM [39]: -28%
